Experimental data taken from ChEMBL document CHEMBL1201862, “PubChem BioAssay data set” (2004).
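Cells were grown in 96-well plates and exposed to each compound for 48 hours at five concentrations; endpoints were interpolated linearly between bracketing concentrations, or set to the highest concentration if not reached. At the GI50, growth is halved.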 The source made the active and inactive calls. No stated cut-off is given here; in the data, active = GI50 up to about 1.1 µM and inactive = higher. Where a SMILES comes first, the peptide text is derived from it. The star is where a group is joined. Cbz = O=C(OCc1ccccc1)*

What was measured:
Experiment in all cases: growth of human tumour cells (NCI), 48 h
HCT-15 = system: HCT-15
MDA-N = system: MDA-N
NCI-H522 = system: NCI-H522
OVCAR-4 = system: OVCAR-4
M14 = system: M14
SK-MEL-28 = system: SK-MEL-28
HCC 2998 = system: HCC 2998
786-0 = system: 786-0
UACC-62 = system: UACC-62
U-251 = system: U-251
CAKI-1 = system: CAKI-1
A498 = system: A498
MOLT-4 = system: MOLT-4
SF-295 = system: SF-295
SN12C = system: SN12C
NCI-H23 = system: NCI-H23
K562 = system: K562
OVCAR-3 = system: OVCAR-3
COLO 205 = system: COLO 205
HL-60 = system: HL-60

Row | SMILES | GI50 (HCT-15) [µM] | GI50 (MDA-N) | GI50 (NCI-H522) | GI50 (OVCAR-4) | GI50 (M14) | GI50 (SK-MEL-28) | GI50 (HCC 2998) | GI50 (786-0) | GI50 (UACC-62) | GI50 (U-251) | GI50 (CAKI-1) | GI50 (A498) | GI50 (MOLT-4) | GI50 (SF-295) | GI50 (SN12C) | GI50 (NCI-H23) | GI50 (K562) | GI50 (OVCAR-3) | GI50 (COLO 205) | GI50 (HL-60)
1 | Nc1ccc(C(=O)CC(N)C(=O)O)cc1O (stereo not given) | > 100 | > 100 µM (inactive) | > 100 µM (inactive) | > 100 µM (inactive) | > 100 µM (inactive) | > 100 µM (inactive) | > 100 µM (inactive) | > 100 µM (inactive) | > 100 µM (inactive) | > 100 µM (inactive) | > 100 µM (inactive) | > 100 µM (inactive) | > 100 µM (inactive) | > 100 µM (inactive) | > 100 µM (inactive) | > 100 µM (inactive) | > 100 µM (inactive) | > 100 µM (inactive) | > 100 µM (inactive) | > 100 µM (inactive)
2 | Cc1ccc(S(=O)(=O)Oc2coc(CO)cc2=O)cc1 | 13.3 | 8.02 µM (inactive) | 1.76 µM (inactive) | 15.1 µM (inactive) | 13.1 µM (inactive) | 17.3 µM (inactive) | 13.7 µM (inactive) | 6.38 µM (inactive) | 11.9 µM (inactive) | 9.84 µM (inactive) | 4.42 µM (inactive) | 15.5 µM (inactive) | 13.4 µM (inactive) | 16 µM (inactive) | 12.7 µM (inactive) | 16.8 µM (inactive) | 6.04 µM (inactive) | 15.3 µM (inactive) | 14.3 µM (inactive) | 3.14 µM (inactive)
3 | CCOc1ccc2nc3nc(O)nc(C)c3c(NCCCN(CC)CC)c2c1 | > 100 | > 100 µM (inactive) | > 100 µM (inactive) | > 100 µM (inactive) | > 100 µM (inactive) | > 100 µM (inactive) | > 100 µM (inactive) | > 100 µM (inactive) | > 100 µM (inactive) | > 100 µM (inactive) | > 100 µM (inactive) | > 100 µM (inactive) | > 100 µM (inactive) | > 100 µM (inactive) | > 100 µM (inactive) | > 100 µM (inactive) | > 100 µM (inactive) | > 100 µM (inactive) | > 100 µM (inactive) | > 100 µM (inactive)
4 | CC(CCC=O)CCOCc1ccccc1 (stereo not given) | > 100 | > 100 µM (inactive) | 34.8 µM (inactive) | > 77.8 µM (inactive) | > 100 µM (inactive) | > 100 µM (inactive) | > 100 µM (inactive) | > 100 µM (inactive) | > 100 µM (inactive) | > 100 µM (inactive) | 36.8 µM (inactive) | > 100 µM (inactive) | > 40.7 µM (inactive) | > 100 µM (inactive) | > 100 µM (inactive) | 67.3 µM (inactive) | > 63.5 µM (inactive) | > 88.5 µM (inactive) | > 100 µM (inactive) | 18.9 µM (inactive)
5 | O=CNc1ccccc1OCCOc1ccccc1NC=O | > 100 | > 100 µM (inactive) | > 100 µM (inactive) | > 100 µM (inactive) | > 100 µM (inactive) | > 100 µM (inactive) | > 100 µM (inactive) | > 100 µM (inactive) | > 100 µM (inactive) | > 100 µM (inactive) | > 100 µM (inactive) | > 100 µM (inactive) | > 100 µM (inactive) | > 100 µM (inactive) | > 100 µM (inactive) | > 100 µM (inactive) | > 100 µM (inactive) | > 100 µM (inactive) | > 100 µM (inactive) | > 100 µM (inactive)
6 | COc1ccc2c(c1)CN([C@@H](C)[C@H]1CC[C@H]3[C@@H]4CC[C@H]5C[C@@H](O)CC[C@]5(C)[C@H]4CC[C@]13C)CO2 | 1.32 | 1.7 µM (inactive) | 1.95 µM (inactive) | 4.05 µM (inactive) | 1.57 µM (inactive) | 2.48 µM (inactive) | 1.61 µM (inactive) | 1.3 µM (inactive) | 2 µM (inactive) | 1.62 µM (inactive) | 4.75 µM (inactive) | 1.88 µM (inactive) | 1.03 µM (active) | 1.45 µM (inactive) | 8.57 µM (inactive) | 1.89 µM (inactive) | 0.787 µM (active) | 5.79 µM (inactive) | 2 µM (inactive) | 2.47 µM (inactive)
7 | CCCCCCCCCCCCC/C=C(/COCC[N+](C)(C)C)OC(C)=O.CCCCCCCCCCCCCC/C(=C/OCC[N+](C)(C)C)OC(C)=O | 3.43 | 3.07 µM (inactive) | 1.87 µM (inactive) | 1.95 µM (inactive) | 2.5 µM (inactive) | 6.5 µM (inactive) | 4.04 µM (inactive) | 1.08 µM (active) | 1.74 µM (inactive) | 1.19 µM (inactive) | 1.58 µM (inactive) | 2.49 µM (inactive) | 2.29 µM (inactive) | 0.92 µM (active) | 3.01 µM (inactive) | 1.9 µM (inactive) | 1.71 µM (inactive) | 1.61 µM (inactive) | 1.48 µM (inactive) | 1.64 µM (inactive)
8 | N#Cc1nc(CCC(C(=O)O)N2C(=O)c3ccccc3C2=O)oc1N (stereo not given) | > 100 | > 100 µM (inactive) | > 100 µM (inactive) | > 100 µM (inactive) | > 100 µM (inactive) | > 100 µM (inactive) | > 100 µM (inactive) | > 100 µM (inactive) | > 100 µM (inactive) | > 100 µM (inactive) | > 100 µM (inactive) | > 100 µM (inactive) | > 100 µM (inactive) | > 100 µM (inactive) | > 100 µM (inactive) | > 100 µM (inactive) | > 100 µM (inactive) | > 100 µM (inactive) | > 100 µM (inactive) | > 100 µM (inactive)
9 | O=C1C2=C(c3ccccc31)C(c1ccccc1)N1C(=O)CSC1=N2 (stereo not given) | 40.3 | 17 µM (inactive) | 29.4 µM (inactive) | 35.3 µM (inactive) | 49.4 µM (inactive) | 63.5 µM (inactive) | > 68.1 µM (inactive) | > 54.6 µM (inactive) | 37.8 µM (inactive) | > 63 µM (inactive) | 49.8 µM (inactive) | > 100 µM (inactive) | 38.8 µM (inactive) | 41.5 µM (inactive) | > 53.6 µM (inactive) | 56.4 µM (inactive) | 37.2 µM (inactive) | 51.2 µM (inactive) | > 56.4 µM (inactive) | 40.1 µM (inactive)
10 | CC(=O)O[C@H]1C(=O)O[C@@H]2C[C@H]3C(C)=CC(=O)[C@@H](O)[C@]3(C)[C@H]3[C@@]4(O)OC[C@]32[C@@H]1[C@@H](C)[C@H]4O | 0.0759 | 0.0211 µM (active) | 0.0243 µM (active) | 0.0577 µM (active) | 0.0219 µM (active) | 0.0281 µM (active) | 0.0505 µM (active) | 0.0238 µM (active) | 0.0434 µM (active) | 0.0285 µM (active) | 0.265 µM (active) | 0.103 µM (active) | 0.022 µM (active) | 0.0535 µM (active) | 0.0767 µM (active) | 0.0268 µM (active) | 0.0266 µM (active) | 0.0266 µM (active) | 0.188 µM (active) | 0.0229 µM (active)
11 | Cc1ccnc2nc(-c3ccc(Cl)cc3)cc(O)c12 | 2.32 | 0.752 µM (active) | 2.58 µM (inactive) | > 23.8 µM (inactive) | 8.63 µM (inactive) | 7.78 µM (inactive) | > 27.4 µM (inactive) | 4.46 µM (inactive) | 3.01 µM (inactive) | 4.07 µM (inactive) | 6.68 µM (inactive) | 3.65 µM (inactive) | 3.99 µM (inactive) | 4.38 µM (inactive) | 8.2 µM (inactive) | 6.31 µM (inactive) | 1.89 µM (inactive) | 4.89 µM (inactive) | 2.33 µM (inactive) | 1.58 µM (inactive)
12 | CCOC(=O)CCC(NC(=O)C(Cc1ccccc1)NC(=O)OCc1ccccc1)C(=O)OCC (stereo not drawn) (Cbz-Phe-Glu(OEt)-OEt; configuration not given here) | 20.1 | 17.2 µM (inactive) | 15.7 µM (inactive) | 17.7 µM (inactive) | 15.9 µM (inactive) | 17.9 µM (inactive) | 17.7 µM (inactive) | 18.1 µM (inactive) | 17.9 µM (inactive) | 14.9 µM (inactive) | 16.7 µM (inactive) | 21.2 µM (inactive) | 30.2 µM (inactive) | 19.8 µM (inactive) | 20.7 µM (inactive) | 17 µM (inactive) | 37.4 µM (inactive) | 15.3 µM (inactive) | 19.4 µM (inactive) | 20.1 µM (inactive)
